Patent publication US11690810B2, “Combination treatment of bacterial infection” (The Chinese University of Hong Kong, priority 2018, dated 2023)
In brackets after ≈: the same amount, converted by molar mass. Like-named read-outs stand apart in the source and are kept apart here.

Columns and labels:
[1] = test system: clinical community-associated (CA) and hospital-associated (HA) MRSA strains; assay: MIC and combination tests, panel of clinical strains; conditions: range over clinical CA and HA MRSA strains (Table 3)
[2] = test system: S. aureus SA-APH3′ (APH3), resistant to kanamycin; assay: MIC and checkerboard (FIC) assay
physchem = conditions: aqueous with cosolvent or surfactant or cyclodextrin
panel of MRSA strains = conditions: previous study (12); cited from earlier work
[3] = test system: cytokines production of human macrophages stimulated with PGN or SEB; type: cell-based
[4] = test system: Human Umbilical Vein Endothelial Cells (HUVEC); assay: XTT cytotoxicity testing; conditions: 2-64 μg/ml, vs drug free control
[5] = test system: panel of laboratory MRSA strains; assay: MIC and combination tests, panel of laboratory strains
clinical MRSA ST239 = assay: Mouse pneumonia model, ST239 (neutropenic mice); type: in vivo, Balb/c mice; conditions: ST239; 48 h; 1 also died in control
[6] = test system: bacterial aggregation of MRSA JE-2; assay: Aggregation assay of MRSA JE-2; type: cell-based, Staphylococcus aureus; conditions: kuraridin at 4 μg/ml
[7] = test system: S. aureus SA-RN4220-pUL5054 (RN4220); assay: MIC and checkerboard (FIC) assay
[8] = test system: Human Mammary Epithelial Cell (HMEC); assay: XTT cytotoxicity testing; type: cell-based; conditions: 2-64 μg/ml, vs drug free control
Procedure: (§1) The plates were maintained in a 37° C. incubator.

[9] = test system: Panton-Valentine leukocidin positive CA-MRSA strain ST30; type: in vivo, Balb/c mice; conditions: ST30
[10] = test system: S. aureus ATCC25923 (methicillin sensitive); assay: MIC and checkerboard (FIC) assay; conditions: Staphylococcus aureus
MRSA SA-ST239 = assay: MIC and checkerboard (FIC) assay; conditions: Staphylococcus aureus, MRSA
[11] = test system: cytokines production of human PBMC stimulated with PGN or SEB; type: cell-based
[12] = test system: S. aureus SA-APH2″-AAC6′ (APH2), resistant to gentamicin; assay: MIC and checkerboard (FIC) assay
[13] = test system: human peripheral blood mononuclear cells (PBMC); assay: XTT cytotoxicity testing; type: cell-based; conditions: 2-64 μg/ml, vs drug free control
Procedure: as §1
The cytotoxicity of kuraridin and its analogues were determined by the sodium 3′-[1-(phenylaminocarbonyl)-3,4-tetrazolium]-bis (4-methoxy-6-nitro) benzene sulfonic acid hydrate (XTT) assay.
Serial dilutions of the compounds ranging 2-64 μg/ml were incubated with PBMCs at 37° C. for 72 hrs.

[14] = test system: S. aureus SA-1199B (NorA efflux pump overexpressed); assay: MIC and checkerboard (FIC) assay
[15] = test system: S. aureus SA-ANT4′ (ANT4), resistant to fusidic acid; assay: MIC and checkerboard (FIC) assay
[16] = test system: adherence of MRSA strain JE-2 to HaCat keratinocytes; assay: Bacterial adherence to HaCaT keratinocytes; type: cell-based, Staphylococcus aureus
[17] = test system: adherence of MRSA strain JE-2 to fibrinogen; assay: Fibrinogen-binding adherence assay (crystal violet); type: cell-based, Staphylococcus aureus; conditions: kuraridin at 1.0 μg/ml
[18] = test system: internalization of MRSA strain JE-2 by HaCat keratinocytes; assay: Internalization of S. aureus by HaCaT keratinocytes; type: cell-based, Staphylococcus aureus
[19] = Staphylococcus aureus, read-out: MIC 99.9
[20] = Staphylococcus aureus, read-out: MIC alone

With `C=C(C)C(CC=C(C)C)Cc1c(O)cc(OC)c(C(=O)/C=C/c2ccc(O)cc2O)c1O` (stereo not shown) [Kuraridin] the “MICs in kuraridin and ECG combined treatment” value [1] was 1 to 4 µg/mL, the FIC ([2]; APH3, Kuraridin with ECG) was 0.25 and the MIC combine ([2]; APH3, Kuraridin with ECG) was 2 µg/mL. For the same molecule, the MIC90 ([2]; Staphylococcus aureus) was 8 µg/mL, the MIC99 [2, 19] was 8 µg/mL and the MIC [2, 20] was 8 µg/mL. The solubility (physchem) was 20 mg/mL (≈ 45.6 mM), the “minimum inhibitory concentration (MIC)” value (panel of MRSA strains) was “around 8 μg/ml” and the IFN-γ productions [3] was “could suppress”. For the same molecule, the “IL-6 and IL-12 production” value [3] was “dose-dependently inhibited”, the TNF-α production [3] was “suppressed” and the “Cellular toxicity (XTT assay)” value [4] was “not toxic”. For the same molecule, the MIC99 ([5]; Staphylococcus aureus, MRSA) was 8 to 16 µg/mL, the “MICs in kuraridin and ECG combined treatment” value ([5]; range over laboratory strains (Table 2)) was 2 to 4 µg/mL and the mice died (clinical MRSA ST239) was 1 mouse. The “aggregation lower than the mutant ΔSrtA” value [6] was 3.7 folds, the “reduction in bacterial aggregation as compared to the wild type without drug” value [6] was 4.4 fold and the FIC ([7]; RN4220, Kuraridin with ECG) was 0.25. For the same molecule, the MIC combine ([7]; RN4220, Kuraridin with ECG) was 2 µg/mL, the MIC90 ([7]; Staphylococcus aureus) was 8 µg/mL and the MIC ([7]; Staphylococcus aureus, read-out: Activity (MIC, μg/ml)) was 8 µg/mL. The MIC99 [7, 19] was 8 µg/mL, the MIC [7, 20] was 8 µg/mL and the “Cellular toxicity (XTT assay)” value [8] was “not toxic”. For the same molecule, the “log CFU counts (left lung)” value ([9]; kuraridin 120 mg/kg, ECG 120 mg/kg, 48 h, control 9.24±0.15) was 8.25±0.39 log CFU, the survival rates ([9]; kuraridin 120 mg/kg, ECG 120 mg/kg, control 30%) was 50% and the “log CFU counts and survival rates” value ([9]; used alone at 60 and 120 mg/kg) was “could not reduce the log CFU counts or improve the survival rates”. For the same molecule, the MIC90 ([10]; ATCC25923) was 8 µg/mL, the MIC99 ([10]; ATCC25923, read-out: MIC 99.9) was 8 µg/mL and the MIC90 (MRSA SA-ST239) was 8 µg/mL. For the same molecule, the MIC99 (MRSA SA-ST239; read-out: MIC 99.9) was 8 µg/mL, the “IL-10 and IL-12 production” value [11] was “dose-dependently inhibited” and the FIC ([12]; APH2, Kuraridin with ECG) was 0.25. It also gave an MIC combine ([12]; APH2, Kuraridin with ECG) of 2 µg/mL, an MIC90 ([12]; Staphylococcus aureus) of 8 µg/mL and an MIC99 [12, 19] of 8 µg/mL. The MIC [12, 20] was 8 µg/mL, the “Cellular toxicity (XTT assay)” value [13] was “not toxic” and the FIC ([14]; 1199B, Kuraridin with ECG) was 0.25. For the same molecule, the MIC combine ([14]; 1199B, Kuraridin with ECG) was 4 µg/mL, the MIC90 ([14]; Staphylococcus aureus) was 16 µg/mL and the MIC99 [14, 19] was 16 µg/mL. The MIC ([14]; Staphylococcus aureus, read-out: MIC alone, 1199B, Kuraridin and ECG section) was 16 µg/mL, the FIC ([15]; ANT4, Kuraridin with ECG) was 0.25 and the MIC combine ([15]; ANT4, Kuraridin with ECG) was 2 µg/mL. For the same molecule, the MIC90 ([15]; Staphylococcus aureus) was 4 µg/mL, the MIC99 [15, 19] was 8 µg/mL and the MIC [15, 20] was 8 µg/mL. The “adherence of WT strain to HaCaT cells” value ([16]; 2 μg/ml kuraridin (0.25×MIC)) was “abolished”, the “percentage of adherence of the bacteria” value ([16]; kuraridin 0.25 μg/ml) was 28.4±3.2% and the “percentage of adherence of the bacteria” value ([16]; kuraridin 0.5 μg/ml) was 17.8±11.1%. For the same molecule, the “percentage of adherence of the bacteria” value ([16]; kuraridin 1 μg/ml) was 7.6±3.7%, the “reduction in the adherence of the WT strain to fibrinogen” value [17] was 100% and the “percentage of internalized bacteria by HaCaT cells” value ([18]; kuraridin 0.25 μg/ml) was 23.8±4.6%. The “percentage of internalized bacteria by HaCaT cells” value ([18]; kuraridin 0.5 μg/ml) was 15.8±2.0%.
